ChEMBL document CHEMBL1122575, “Dependence of beta-lactamase stability on substructures within beta-lactam antibiotics” (J Med Chem, 1984)
Values after ≈ are worked out from the molar mass of the structure shown.

Columns and labels:
Escherichia coli [1] = assay: Compound was evaluated for the antibacterial activity against Escherichia coli (RTEM+ organism); type: functional
Escherichia coli [2] = assay: Compound was evaluated for the antibacterial activity against Escherichia coli with strain beta-Lactamase-negative (LAC-); type: functional
Staphylococcus aureus [3] = assay: Compound was evaluated for the antibacterial activity against Staphylococcus aureus with strain beta-Lactamase-negative (LAC-); type: functional
Staphylococcus aureus [4] = assay: Compound was evaluated for the antibacterial activity against Staphylococcus aureus with strain beta-Lactamase-positive (LAC+); type: functional
Staphylococcus aureus [5] = assay: Relative hydrolysis rate (RHR) was evaluated against Staphylococcus aureus with strain PC1.; type: ADME, organism-based
Escherichia coli [6] = assay: Compound was evaluated for the antibacterial activity against Escherichia coli with strain 609 (beta-Lactamase-positive (LAC+)); type: functional
Escherichia coli [7] = assay: Compound was evaluated for the relative Vmax against Escherichia coli with strain 609 (beta-Lactamase-positive (LAC+)); type: ADME, organism-based
Escherichia coli [8] = assay: Compound was evaluated for the antibacterial activity against Escherichia coli with strain NIHJ (beta-Lactamase-negative (LAC-)); type: functional
Escherichia coli [9] = assay: Compound was evaluated for the antibacterial activity against Escherichia coli with strain NIHJ (beta-Lactamase-negative (LAC-); type: functional
Escherichia coli [10] = assay: Compound was evaluated for the antibacterial activity against Escherichia coli (RTEM+ organism).; type: functional
[11] = Relative hydrolysis rate (RHR) was evaluated against RTEM enzyme; type: ADME
[12] = Relative hydrolysis rate (RHR) was evaluated against K1 enzyme; type: ADME
Escherichia coli [13] = assay: Compound was evaluated for the antibacterial activity against Escherichia coli with strain JC-S (beta-Lactamase-negative (LAC-)); type: functional
Enterobacter cloacae [14] = assay: Compound was evaluated for the antibacterial activity against Enterobacter cloacae with strain 233 (beta-Lactamase-positive (LAC+)); type: functional
Enterobacter cloacae [15] = assay: Compound was evaluated for the antibacterial activity against Enterobacter cloacae with the strains beta-Lactamase-positive (LAC+); type: functional
[16] = Relative Vmax was reported; type: ADME

## CC(=O)NCCSC1=C(C(=O)O)N2C(=O)[C@H]([C@H](C)O)C2C1 (stereo partly drawn)
Escherichia coli [1]
  MIC: 0.8 µg/mL (≈ 2.54 µM)
Escherichia coli [2]
  MIC: 0.8 µg/mL (≈ 2.54 µM)

## CC(=O)NCCSC1=C(C(=O)O)N2C(=O)[C@H]([C@@H](C)O)C2C1 (stereo partly drawn)
Escherichia coli [1]
  MIC: 6.2 µg/mL (≈ 19.7 µM)
Escherichia coli [2]
  MIC: 6.2 µg/mL (≈ 19.7 µM)

## C[C@H]1[C@H](NC(=O)CSc2cc(Cl)nc(Cl)c2)C(=O)N1OS(=O)(=O)[O-].[K+]
Staphylococcus aureus [3]
  MIC: 0.2 µg/mL
Staphylococcus aureus [4]
  MIC: 6.3 µg/mL
Staphylococcus aureus [5]
  RHR: 2.6

## CC(O)[C@@H]1C(=O)N2C(C(=O)O)=C(SCCN)SC12 (stereo partly drawn)
Escherichia coli [6]
  MIC: 25 µg/mL (≈ 86.1 µM)
Escherichia coli [7]
  RVmax: < 0.1
Escherichia coli [8]
  MIC: 12.5 µg/mL (≈ 43 µM)

## CCCO[C@@]1(NC(=O)CSCC#N)C(=O)N2C(C(=O)O)=C(CSc3nnnn3C)CSC21 (stereo partly drawn)
Escherichia coli [9]
  MIC: > 200 µg/mL
Escherichia coli [10]
  MIC: 200 µg/mL (≈ 400 µM)

## CCO[C@@]1(NC(=O)CSCC#N)C(=O)N2C(C(=O)O)=C(CSc3nnnn3C)CSC21 (stereo partly drawn)
Escherichia coli [9]
  MIC: 50 µg/mL (≈ 103 µM)
Escherichia coli [10]
  MIC: 50 µg/mL (≈ 103 µM)

## CC(=O)OCC1=C(C(=O)O)N2C(=O)[C@@H](NC(=O)/C(=N/OCC(=O)O)c3csc(N)n3)C2SC1 (stereo partly drawn)
[11]
  RHR: < 0.1
[12]
  RHR: 3

## NCCSC1=C(C(=O)O)N2C(=O)[C@@H](CO)C2S1 (stereo partly drawn)
Escherichia coli [6]
  MIC: 25 µg/mL (≈ 90.5 µM)
Escherichia coli [7]
  RVmax: 10
Escherichia coli [8]
  MIC: 3.1 µg/mL (≈ 11.2 µM)

## CC(O)[C@H]1C(=O)N2C(C(=O)O)=C(SCCN)SC12 (stereo partly drawn)
Escherichia coli [6]
  MIC: 1.5 µg/mL (≈ 5.17 µM)
Escherichia coli [7]
  RVmax: < 0.1
Escherichia coli [8]
  MIC: 0.8 µg/mL (≈ 2.76 µM)

## CC(=O)OCC1=C(C(=O)O)N2C(=O)[C@@H](NC(=O)/C(=N\OCC(=O)O)c3csc(N)n3)C2SC1 (stereo partly drawn)
[11]
  RHR: 2111
[12]
  RHR: 101

## CO[C@@]1(NC(=O)C(C(=O)O)c2ccc(O)cc2)C(=O)N2C(C(=O)O)=C(CSc3nnnn3C)COC21 (stereo partly drawn)
Escherichia coli [13]
  MIC: 0.2 µg/mL (≈ 0.384 µM)
Escherichia coli [10]
  MIC: 0.4 µg/mL (≈ 0.769 µM)
Enterobacter cloacae [14]
  MIC: 0.2 µg/mL (≈ 0.384 µM)

## CO[C@@]1(NC(=O)Cc2ccc(O)cc2)C(=O)N2C(C(=O)O)=C(CSc3nnnn3C)COC21 (stereo partly drawn)
Escherichia coli [13]
  MIC: 0.1 µg/mL (≈ 0.21 µM)
Escherichia coli [10]
  MIC: 0.8 µg/mL (≈ 1.68 µM)
Enterobacter cloacae [14]
  MIC: 100 µg/mL (≈ 210 µM)

## NCCSC1=C(C(=O)O)N2C(=O)CC2S1 (stereo not drawn)
Escherichia coli [6]
  MIC: 50 µg/mL (≈ 203 µM)
Escherichia coli [7]
  RVmax: 75
Escherichia coli [8]
  MIC: 0.8 µg/mL (≈ 3.25 µM)

## Cn1nnnc1SCC1=C(C(=O)O)N2C(=O)[C@@H](NC(=O)C(C(=O)O)c3ccc(O)cc3)C2OC1 (stereo partly drawn)
Escherichia coli [13]
  MIC: 0.2 µg/mL (≈ 0.408 µM)
Escherichia coli [10]
  MIC: 50 µg/mL (≈ 102 µM)
Enterobacter cloacae [14]
  MIC: 0.4 µg/mL (≈ 0.816 µM)

## CC(=O)NCCSC1=C(C(=O)O)N2C(=O)[C@@H](C(C)OS(=O)(=O)[O-])C2C1.[K+] (stereo partly drawn)
Escherichia coli [1]
  MIC: 1.6 µg/mL
Escherichia coli [2]
  MIC: 0.2 µg/mL

## Cn1nnnc1SCC1=C(C(=O)O)N2C(=O)[C@@H](NC(=O)Cc3csc(N)n3)C2SC1 (stereo partly drawn)
Enterobacter cloacae [15]
  MIC: > 100 µg/mL

## CC1(C)SC2[C@H](NC(=O)c3ccccc3)C(=O)N2C1C(=O)O (stereo partly drawn)
[16]
  RVmax: 2

## Cn1nnnc1SCC1=C(C(=O)O)N2C(=O)[C@@H](NC(=O)Cc3ccc(O)cc3)C2OC1 (stereo partly drawn)
Escherichia coli [13]
  MIC: 0.8 µg/mL (≈ 1.79 µM)
Escherichia coli [10]
  MIC: > 100 µg/mL
Enterobacter cloacae [14]
  MIC: > 100 µg/mL

## CO/N=C(/C(=O)N[C@@H]1C(=O)N2C(C(=O)O)=C(CSc3nnnn3C)CSC12)c1csc(N)n1 (stereo partly drawn)
Enterobacter cloacae [15]
  MIC: 1.6 µg/mL (≈ 3.13 µM)

## CC(=O)NCCSC1=C(C(=O)O)N2C(=O)[C@@H](C(C)O)C2C1 (stereo partly drawn)
Escherichia coli [1]
  MIC: 25 µg/mL (≈ 79.5 µM)
Escherichia coli [2]
  MIC: 0.2 µg/mL (≈ 0.636 µM)

## Cn1nnnc1SCC1=C(C(=O)O)N2C(=O)[C@@H](NC(=O)CSCC#N)C2SC1 (stereo partly drawn)
Escherichia coli [9]
  MIC: 0.8 µg/mL (≈ 1.81 µM)
Escherichia coli [10]
  MIC: 12.5 µg/mL (≈ 28.3 µM)

## O=C(CSc1cc(Cl)nc(Cl)c1)N[C@H]1CN(OS(=O)(=O)[O-])C1=O.[K+]
Staphylococcus aureus [3]
  MIC: 0.1 µg/mL
Staphylococcus aureus [4]
  MIC: 0.2 µg/mL
Staphylococcus aureus [5]
  RHR: < 0.5

## NCCSC1=C(C(=O)O)N2C(=O)[C@H](CO)C2S1 (stereo partly drawn)
Escherichia coli [6]
  MIC: 3.1 µg/mL (≈ 11.2 µM)
Escherichia coli [7]
  RVmax: < 0.1
Escherichia coli [8]
  MIC: 1.5 µg/mL (≈ 5.43 µM)

## Cn1nnnc1SCC1=C(C(=O)O)N2C(=O)C(NC(=O)C(C(=O)O)c3ccc(O)cc3)C2OC1 (stereo not drawn)
[11]
  RHR: 19
Escherichia coli [8]
  MIC: 0.2 µg/mL (≈ 0.408 µM)

## CC1[C@H](NC(=O)CSc2cc(Cl)nc(Cl)c2)C(=O)N1OS(=O)(=O)O (single isomer, unassigned)
Staphylococcus aureus [3]
  MIC: 0.1 µg/mL (≈ 0.24 µM)
Staphylococcus aureus [4]
  MIC: 1.6 µg/mL (≈ 3.84 µM)
Staphylococcus aureus [5]
  RHR: 1

## CO[C@@]1(NC(=O)CSCC#N)C(=O)N2C(C(=O)[O-])=C(CSc3nnnn3C)CS[C@@H]21.[Na+] [CEFMETAZOLE SODIUM]
Escherichia coli [9]
  MIC: 0.8 µg/mL
Escherichia coli [10]
  MIC: 0.8 µg/mL

## CO/N=C(\C(=O)N[C@@H]1C(=O)N2C(C(=O)O)=C(COC(C)=O)CS[C@H]12)c1csc(N)n1 [CEFOTAXIME]
[11]
  RHR: 100
[12]
  RHR: 100
